Laboratory results from patent publication US11460474B2, “Marker for statin treatment stratification in heart failure” (Roche Diagnostics Operations, Inc., priority 2013, dated 2022).

How the values were obtained:
[1] = tested on: patient with heart failure; assay: Case examples: statin therapy started after biomarker determination in heart failure patients; conditions: person
Experimental: PlGF is determined in a plasma sample obtained from the patient. The PlGF value is above 22 pg/mL. The physician prescribes atorvastatin 20 mg/d and closely monitors creatine kinase to exclude myopathy.

patients with CHF = conditions: rosuvastatin 10 mg daily, CORONA and GISSI-HF trials; cited from earlier work

Compound | outcome (death or hospitalization) ([1]; NYHA class III heart failure, prior myocardial infarction, PlGF above 22 pg/mL, atorvastatin 20 mg/d, next 1.5 years) | outcome (death or hospitalization) ([1]; class C heart failure, no CAD, GDF-15 above 3800 pg/mL, atorvastatin 10 mg/d, next 16 months) | effect of statin treatment on primary end point (patients with CHF)
CC(C)c1c(C(=O)Nc2ccccc2)c(-c2ccccc2)c(-c2ccc(F)cc2)n1CC[C@@H](O)C[C@@H](O)CC(=O)O [atorvastatin, Atorvastatin] | remains stable with a good outcome | remains stable with a good outcome | –
CC(C)c1nc(N(C)S(C)(=O)=O)nc(-c2ccc(F)cc2)c1/C=C/[C@@H](O)C[C@@H](O)CC(=O)O [rosuvastatin, Rosuvastatin] | – | – | failed to demonstrate a beneficial effect
